{
  "source": "paper PMC12922749",
  "about": "(Science Advances, 2026)",
  "experiment_in_all_cases": "SPR",
  "assay_type_in_all_cases": "binding",
  "key": {"Nur77 [1]": {"target": "Nur77"}, "Nur77 [2]": {"target": "Nur77", "remark": "listed apart in the source"}, "Nur77 [3]": {"target": "Nur77", "remark": "listed apart in the source"}},
  "note": "Read-outs that look alike come from different tables or passages of the source.",
  "data": [
    {"smiles": "CCCCC/C=C\\C[C@@H](O)/C=C/C=C\\C/C=C\\CCCC(=O)O", "note": "[12R-HETE]", "values": [
      {"measurement": "Kd", "setting": "Nur77 [1]", "result": 1.44, "unit": "µM"}
    ]},
    {"smiles": "CCCCC/C=C\\C[C@H](O)/C=C/C=C\\C/C=C\\CCCC(=O)O", "note": "[12S-HETE]", "values": [
      {"measurement": "Kd", "setting": "Nur77 [2]", "result": 13.9, "unit": "µM"}
    ]},
    {"smiles": "CCCCCCCC(=O)c1c(O)cc(O)cc1CC(=O)OCC", "note": "[Cytosporone B]", "values": [
      {"measurement": "Kd", "setting": "Nur77 [3]", "result": 28.9, "unit": "µM"}
    ]}
  ]
}
